Legend:
BT-549 = settings: 72 h
Method: (§1)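 Drug sensitivity and resistance testing (DSRT) of breast cancer cell lines in 384-well plates, 5 concentrations in 10-fold dilutions over a compound-specific 10,000-fold range. After 72 h, cytotoxicity was read by CellTox Green fluorescence and viability by CellTiter-Glo luminescence (multiplexed), normalised to DMSO and benzethonium chloride controls. EC50 is the inflection point of the fitted dose-response curve (bottom asymptote free, so it can be relative for partial curves) and is censored at the highest tested concentration. Rows with DSS 0 (no meaningful response) were excluded.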

MDA-MB-468 = settings: 72 h
Method: as §1

CAL-51 [1] = settings: 72 h
Method: as §1

CAL-85-1 [2] = settings: 72 h
Method: as §1

Hs578T = settings: 72 h
Method: as §1

MDA-MB-453 [3] = settings: 72 h
Outline: (§2)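 The reported EC50 was fitted from percent-inhibition dose-response curves and censored at the highest concentration. Breast cancer cell lines (20 µl suspension) were added to 384-well plates containing compound in 5 µl medium and incubated 72 h, and viability was read with 2.5 µl CellTiter-Blue over 2 h at 37 °C at 560/590 nm. Each plate was normalised to vehicle and a positive kill control and checked by Z'-factor, and rows with zero drug sensitivity score were dropped.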

DU-4475 [4] = settings: 72 h
Outline: as §2

CAL-51 [5] = settings: 72 h; remark: listed apart in the source
Outline: as §2

CAL-85-1 [6] = settings: 72 h; remark: listed apart in the source
Outline: as §2

CAL-148 [7] = settings: 72 h
Outline: as §2

BT-474 = settings: 72 h
Method: as §1

HDQ-P1 = assay: normalised viability (% of control), CellTiter-Blue; higher = more viable cells (about 100 = DMSO control); settings: incubation time: 72 h
Outline: (§3)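 Seeded at 20 µl suspension per well onto compound-loaded 384-well plates, breast cancer cell lines were incubated 72 h. CellTiter-Blue fluorescence at 560/590 nm was then read, with each plate normalised to vehicle (100) and a positive kill control (0). Normalised viability is reported at a single listed concentration of the series.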

MDA-MB-453 [8] = assay: as above; settings: incubation time: 72 h
Outline: as §3

DU-4475 [9] = assay: as above; settings: incubation time: 72 h
Outline: as §3

CAL-51 [10] = assay: as above; settings: incubation time: 72 h
Outline: as §3

CAL-85-1 [11] = assay: as above; settings: incubation time: 72 h
Outline: as §3

CAL-148 [12] = assay: as above; settings: incubation time: 72 h
Outline: as §3

Row | EC50, CellTiter-Blue viability (MDA-MB-453 [3]) [nM] | SMILES | EC50, CellTox Green (BT-549) [nM] | EC50, CellTox Green (CAL-51 [1]) [nM] | EC50, CellTox Green (CAL-85-1 [2]) [nM] | EC50, CellTiter-Blue viability (DU-4475 [4]) [nM] | EC50, CellTiter-Blue viability (CAL-51 [5]) [nM] | EC50, CellTiter-Blue viability (CAL-85-1 [6]) [nM] | EC50, CellTiter-Blue viability (CAL-148 [7]) [nM] | EC50, CellTox Green (BT-474) [nM] | also measured
1 | 114 | COc1ccc(S(=O)(=O)Nc2cccnc2Nc2ccc(O)cc2)cc1 [ABT-751] | 190 | 7380 | 194 | 1250 | 772 | 290 | 949 | – | EC50, CellTox Green (MDA-MB-468): 2.99 nM; EC50, CellTox Green (Hs578T): 1410 nM
2 | – | CN[C@@H](C)C(=O)N[C@H]1CN(C(=O)CC(C)C)CC[C@H]2CC[C@@H](C(=O)NC(c3ccccc3)c3ccccc3)N2C1=O [AT-406] | 18.9 | – | 75.9 | – | – | – | – | > 10000 | –
3 | 782 | Cc1cc(Nc2nc(N[C@@H](C)c3ncc(F)cn3)ncc2Cl)[nH]n1 [AZD1480] | > 1000 | – | – | 443 | – | – | – | – | –
4 | 657 | CNC(=O)c1ccccc1Sc1ccc2c(/C=C/c3ccccn3)n[nH]c2c1 [Axitinib] | – | 1180 | – | 2250 | 1620 | 1250 | 1880 | – | –
5 | 2670 | COc1cc(Nc2c(C#N)cnc3cc(OCCCN4CCN(C)CC4)c(OC)cc23)c(Cl)cc1Cl [Bosutinib] | 7580 | 1550 | 1950 | 5670 | 5020 | 3180 | 1860 | 2830 | EC50, CellTox Green (MDA-MB-468): 3540 nM; EC50, CellTox Green (Hs578T): 576 nM
6 | – | CCN(CC)CCCC(C)Nc1ccnc2cc(Cl)ccc12 (stereo unspecified) [Chloroquine] | 24800 | 50800 | 20800 | – | – | – | – | 4950 | EC50, CellTox Green (MDA-MB-468): 568 nM; EC50, CellTox Green (Hs578T): 18800 nM
7 | – | CC1(COc2ccc3c(c2)ncn3-c2ccc3cccc(N4CCC(N)CC4)c3n2)COC1 [Crenolanib] | 3000 | 4710 | 2620 | – | – | – | – | 2390 | –
8 | – | CC(C)(C)c1nc(-c2cccc(NS(=O)(=O)c3c(F)cccc3F)c2F)c(-c2ccnc(N)n2)s1 [Dabrafenib] | – | – | – | – | – | – | – | – | EC50, CellTox Green (Hs578T): 9.91 nM
9 | 7430 | CC(C)(C)NC(=O)[C@H]1CC[C@H]2[C@@H]3CC[C@H]4NC(=O)C=C[C@]4(C)[C@H]3CC[C@]12C [Finasteride] | – | – | – | 5420 | 8160 | – | 8190 | – | –
10 | – | CC(C)(C)NC(=O)[C@H]1CC[C@H]2[C@@H]3CC[C@H]4NC(=O)C=C[C@]4(C)[C@H]3CC[C@]12C [Finasteride] (10000 nM) | – | – | – | – | – | – | – | – | normalised viability (HDQ-P1): 135%; normalised viability (MDA-MB-453 [8]): 23%; normalised viability (DU-4475 [9]): 0.15%; normalised viability (CAL-51 [10]): 33.7%; normalised viability (CAL-85-1 [11]): 51.9%; normalised viability (CAL-148 [12]): 36.5%
11 | 103 | Nc1ccn([C@@H]2O[C@H](CO)[C@@H](O)C2(F)F)c(=O)n1 [Gemcitabine] | – | 7.56 | 99.7 | 91.6 | 22 | 87.4 | 18.8 | – | EC50, CellTox Green (MDA-MB-468): 5.64 nM
12 | – | Nc1ccn([C@@H]2O[C@H](CO)[C@@H](O)C2(F)F)c(=O)n1 [Gemcitabine] (1000 nM) | – | – | – | – | – | – | – | – | normalised viability (HDQ-P1): 100%; normalised viability (MDA-MB-453 [8]): 1.2%; normalised viability (DU-4475 [9]): 11.2%; normalised viability (CAL-51 [10]): 7.26%; normalised viability (CAL-85-1 [11]): 5.03%; normalised viability (CAL-148 [12]): 0.25%
13 | – | CC(C)C[C@H](NC(=O)[C@@H](COC(C)(C)C)NC(=O)[C@H](Cc1ccc(O)cc1)NC(=O)[C@H](CO)NC(=O)[C@H](Cc1c[nH]c2ccccc12)NC(=O)[C@H](Cc1cnc[nH]1)NC(=O)[C@@H]1CCC(=O)N1)C(=O)N[C@@H](CCCNC(=N)N)C(=O)N1CCC[C@H]1C(=O)NNC(N)=O [Goserelin] | – | – | – | – | – | – | – | > 10000 | –
14 | – | CC(C)C[C@H](NC(=O)[C@@H](COC(C)(C)C)NC(=O)[C@H](Cc1ccc(O)cc1)NC(=O)[C@H](CO)NC(=O)[C@H](Cc1c[nH]c2ccccc12)NC(=O)[C@H](Cc1cnc[nH]1)NC(=O)[C@@H]1CCC(=O)N1)C(=O)N[C@@H](CCCNC(=N)N)C(=O)N1CCC[C@H]1C(=O)NNC(N)=O [Goserelin] (10000 nM) | – | – | – | – | – | – | – | – | normalised viability (HDQ-P1): 140%; normalised viability (MDA-MB-453 [8]): 89.8%; normalised viability (DU-4475 [9]): 104%; normalised viability (CAL-51 [10]): 109%; normalised viability (CAL-85-1 [11]): 84.9%; normalised viability (CAL-148 [12]): 102%
15 | – | O=C(O)CNC(=O)c1c(O)c2ccccc2n(Cc2ccccc2)c1=O [IOX-2] | 1170 | – | – | – | – | – | – | – | –
16 | 396 | CC(=O)[C@]1(O)Cc2c(O)c3c(c(O)c2[C@@H](O[C@H]2C[C@H](N)[C@H](O)[C@H](C)O2)C1)C(=O)c1ccccc1C3=O [Idarubicin] | – | 148 | 198 | 23.4 | 7.78 | 240 | 18.7 | 53.5 | EC50, CellTox Green (MDA-MB-468): 82.7 nM
17 | – | CC(=O)[C@]1(O)Cc2c(O)c3c(c(O)c2[C@@H](O[C@H]2C[C@H](N)[C@H](O)[C@H](C)O2)C1)C(=O)c1ccccc1C3=O [Idarubicin] (1000 nM) | – | – | – | – | – | – | – | – | normalised viability (HDQ-P1): 17%; normalised viability (MDA-MB-453 [8]): 11.6%; normalised viability (DU-4475 [9]): 0.02%; normalised viability (CAL-51 [10]): 1.95%; normalised viability (CAL-85-1 [11]): 6.92%; normalised viability (CAL-148 [12]): 1.34%
18 | 515 | C/C(=C\c1csc(C)n1)[C@@H]1C[C@@H]2O[C@]2(C)CCC[C@H](C)[C@H](O)[C@@H](C)C(=O)C(C)(C)[C@@H](O)CC(=O)N1 [Ixabepilone] | 10.8 | 38.4 | 437 | 642 | > 1000 | 947 | 601 | – | –

Row | SMILES | EC50, CellTiter-Blue viability (MDA-MB-453 [3]) [nM] | EC50, CellTox Green (BT-549) [nM] | EC50, CellTox Green (CAL-51 [1]) [nM] | EC50, CellTox Green (CAL-85-1 [2]) [nM] | EC50, CellTiter-Blue viability (DU-4475 [4]) [nM] | EC50, CellTiter-Blue viability (CAL-51 [5]) [nM] | EC50, CellTiter-Blue viability (CAL-85-1 [6]) [nM] | EC50, CellTiter-Blue viability (CAL-148 [7]) [nM] | EC50, CellTox Green (BT-474) [nM] | also measured
19 | Cn1cc(C2=C(c3cn(C4CCN(Cc5ccccn5)CC4)c4ccccc34)C(=O)NC2=O)c2ccccc21 [Enzastaurin] | 408 | – | – | – | – | – | – | 24 | – | –

Source: the supplement of paper PMC4862054
